Measurements from publication PMC12422582, “A divergent cyclic nucleotide binding protein promotes Plasmodium ookinete infection of the mosquito” (PLOS Pathogens, 2025).

Tests used:
[1] = biological target: T1, CBP-O(ΔN-term), GFP-tagged (Plasmodium berghei, UniProt A0A509AL17); assay: cGMP-agarose pull-down from schizont lysate, anti-GFP western blot; type: biochemical; conditions: ligand immobilised as 8-AET-cGMP-Agarose; Hepes pH […]°C, […] h
T1 construct: gene PBANKA_1025300; endogenous locus edited: residues 1-1694 deleted, CNB1-4/X kept, GFP tag; P. berghei schizont lysate

CNB3 of PbCBP-O (PbCNB3) = biological target: T2, CNB3 of PbCBP-O (PbCNB3) (Plasmodium berghei, UniProt A0A509AL17); assay: cGMP-agarose pull-down, anti-His western blot; type: binding; conditions: ligand immobilised through position […] as 8-AET-cGMP-Agarose (BioLog); E. coli lysate, Hepes pH […]°C, […] h
T2 construct: gene PBANKA_1025300; N-terminal 6xHis, pET28a, E. coli Rosetta DE3, soluble lysate

In the case of `Nc1nc2c(ncn2[C@@H]2O[C@@H]3COP(=O)(O)O[C@H]3[C@H]2O)c(=O)[nH]1` [cGMP], the “cGMP-agarose pull-down from schizont lysate, anti-GFP western blot” value [1] is reported as “the N-term mutant retained cyclic nucleotide binding activity (Fig 6D)” and the “cGMP-agarose pull-down, anti-His western blot” value (CNB3 of PbCBP-O (PbCNB3)) is reported as “CNB3 showed affinity for both cAMP and cGMP (Fig 6C)”.
